From ChEMBL document CHEMBL3045408, “Receptor and ligand-based 3D-QSAR study on a series of nonsteroidal anti-inflammatory drugs” (Med Chem Res, 2013)

Legend:
[1] = molecular target: T1, Prostaglandin G/H synthase 2 (Homo sapiens) (UniProt P35354); assay: Ratio of compound IC50 to celecoxib IC50 for Inhibition of COX2 (unknown origin)
T1 sequence (whole entry): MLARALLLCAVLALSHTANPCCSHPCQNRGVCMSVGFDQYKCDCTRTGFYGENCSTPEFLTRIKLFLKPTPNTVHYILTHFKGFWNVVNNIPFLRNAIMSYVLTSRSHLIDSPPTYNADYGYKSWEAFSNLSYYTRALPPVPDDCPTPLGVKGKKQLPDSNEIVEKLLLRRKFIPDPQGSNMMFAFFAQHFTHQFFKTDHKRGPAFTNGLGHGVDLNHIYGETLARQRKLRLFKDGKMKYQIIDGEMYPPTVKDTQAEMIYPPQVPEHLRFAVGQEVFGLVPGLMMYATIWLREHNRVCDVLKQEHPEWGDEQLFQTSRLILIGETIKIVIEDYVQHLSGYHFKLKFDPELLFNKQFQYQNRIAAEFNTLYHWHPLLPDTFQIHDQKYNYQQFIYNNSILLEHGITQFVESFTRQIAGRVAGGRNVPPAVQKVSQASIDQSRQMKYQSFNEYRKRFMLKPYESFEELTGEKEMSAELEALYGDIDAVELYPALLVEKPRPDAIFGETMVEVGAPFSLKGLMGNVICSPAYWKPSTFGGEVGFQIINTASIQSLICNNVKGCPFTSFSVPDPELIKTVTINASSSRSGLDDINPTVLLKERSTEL

[2] = molecular target: T2, Prostaglandin G/H synthase 2 (Homo sapiens, UniProt P35354); assay: Inhibition of COX2 (unknown origin)
T2 sequence (P35354 whole entry): T1 sequence (whole entry)

| SMILES | -log(RatioIC50) [1] | IC50 [2] [nM] |
| --- | --- | --- |
| CCCCC(=C(c1ccccc1)c1ccccc1)c1ccc(S(C)(=O)=O)cc1 | 0.609 | – |
| CCCCC(=C(c1ccccc1)c1cc(C(C)(C)C)c(C(C)=O)c(C(C)(C)C)c1)c1ccc(S(C)(=O)=O)cc1 | -3.2 | > 100000 |
| CC/C(=C(\c1ccccc1)c1ccc(NS(C)(=O)=O)cc1)c1ccccc1 | -1.41 | 1800 |
| CC(C)Oc1ccc(-c2cccc(/C(=C\c3ccc(S(C)(=O)=O)cc3)C(=O)O)c2)cc1 | -3.2 | > 100000 |
| CS(=O)(=O)Nc1ccc(/C(=C(\c2ccccc2)C2CCCCC2)c2ccccc2)cc1 | -3.15 | > 100000 |
| CCC(=C(c1ccccc1)c1ccccc1)c1ccc(S(C)(=O)=O)cc1 | -1.34 | 1250 |
| CCCCC(=C(c1ccccc1)c1cc(C(C)(C)C)c(O)c(C(C)(C)C)c1)c1ccc(S(C)(=O)=O)cc1 | -0.711 | 360 |
| CS(=O)(=O)c1ccc(C=C(c2ccc(Cl)cc2)c2ccc(Cl)cc2)cc1 | – | 2000 |
| CS(=O)(=O)c1ccc(/C=C(/C(=O)O)c2cccc(-c3ccc(F)cc3F)c2)cc1 | -3.2 | > 100000 |
| CCCC/C(=C(\c1ccccc1)c1ccc(NS(C)(=O)=O)cc1)c1ccccc1 | -0.66 | 320 |
